According to paper PMC6478823, “A suite of phenotypic assays to ensure pipeline diversity when prioritizing drug-like Cryptosporidium growth inhibitors” (Nature Communications, 2019):
Where two headings read alike, the source gives them in different places.

Experiments:
[1] = test system: C. parvum; test: 48 h Cryptosporidium growth inhibition assay; format: cell-based, Cryptosporidium parvum; conditions: compound added 3 h post-infection, read at 48 h
Excerpt: As a first step in developing specific Cryptosporidium mode of action assays, we conducted a series of light microscopy time-lapse and transmission electron microscopy (TEM) time course experiments in order to precisely define C. parvum development within the HCT-8 cell culture system. […] This synchronicity was exploited by modifying a previously developed high-content microscopy assay. These assay modifications enabled the evaluation of several key events within the life cycle: host cell invasion, intracellular replication, host cell egress and establishment of new parasitophorous vacuoles, and sexual differentiation. […] Since the methods all used automated liquid handling, imaging, and image analysis, the assay methods all incorporated nuclear staining to monitor host cell numbers and enable recognition of HCT-8 cell monolayer damage, for example as an artifact from a malfunctioning plate washer or from unanticipated cytotoxicity of the compounds.
Human ileocecal adenocarcinoma (HCT-8) cells were purchased from ATCC (catalog# CCL-244) and cultured in ATCC modified RPMI-1640 medium (Gibco, catalog# A10491–01), supplemented with 10% heat-inactivated fetal bovine serum (Sigma-Aldrich, catalog# 12306C) and 120 U/mL penicillin and 120 μg/mL streptomycin (Gibco, catalog# 15140-122) (culture media). […] For all experiments, HCT-8 cells between passages 9 and 39 were used. C. parvum (Iowa isolate) oocysts were purchased from Bunchgrass Farm (Deary, ID), stored at 4 °C and used within 5 months of collection from an infected calf. To induce excystation, oocysts were first treated with 10 mM hydrochloric acid for 10 min at 37 °C, spun at 14,000×g for 4.5 min at room temperature, treated with 2 mM sodium taurocholate for 10 min at 16 °C, spun as before, and resuspended in culture media for infection.
A modification of a previously reported immunofluorescence assay was used to determine the EC50 and EC90 of compounds[13]. HCT-8 cells were grown to ≥ 90% confluence in 384-well plates (Corning, catalog# 353962) and infected with 5500 oocysts per well after they were induced for excystation as described above. Different concentrations of compounds were added 3 h post-infection and plates were incubated for another 45 h in a 5% CO2 incubator at 37 °C. Wells were then washed 3 times with PBS containing 111 mM D-galactose (PBS-D-gal), fixed with 4% paraformaldehyde (PFA) in PBS for 15 min at room temperature, permeabilized with 0.25% Triton X-100 for 10 min at 37 °C, washed 3 times with PBS with 0.1% Tween 20, and blocked with 4% bovine serum albumin (BSA) in PBS for 2 h at 37 °C or 4 °C overnight. Parasitophorous vacuoles were stained with 1.33 µg/mL of fluorescein-labeled Vicia villosa lectin (Vector Laboratories, catalog# FL-1231) diluted in 1% BSA in PBS with 0.1% Tween 20 for 1 h at 37 °C, followed by addition of Hoechst 33258 (AnaSpec, catalog# AS-83219) at 0.09 mM diluted in water for another 15 min at 37 °C. Wells were then washed 5 times with PBS containing 0.1% Tween 20. A Nikon Eclipse Ti2000 epifluorescence microscope with an automated stage was programmed using NIS-Elements Advanced Research software (Nikon, USA) to focus on the center of each well and take a 3 × 3 or 6 × 6 composite image using an EXi blue fluorescence microscopy camera (QImaging, Canada) with a 20 × objective (NA = 0.45). Nuclei and parasite images were separately exported as.tif files and analyzed using macros developed on the ImageJ platform (National Institutes of Health)[13].

[2] = test system: C. parvum; format: cell-based, Cryptosporidium parvum; conditions: compound at EC90; for Invasion Assay: Mean % Inhibition (parasites), Average: average of replicates; for Invasion Assay: Mean % Inhibition (parasites), Replicate 1a: single biological replicate 1; for Invasion Assay: Mean % Inhibition (parasites), Replicate 2a: single biological replicate 2
Description: The first step in infection is host cell invasion, which involves a complex process encompassing oocyst excystation, parasite motility, adhesion, and parasitophorous vacuole formation (Fig. 2a). Our strategy to assay for compounds affecting invasion was simply to expose C. parvum to compounds immediately after triggering excystation and throughout the invasion process, and then enumerate the parasite vacuoles after 3 h, prior to allowing the parasites to replicate (summarized in Fig. 2b).
Fig. 2 Invasion Assay. a Overview of life cycle stage investigated during the invasion assay. Representative TEM images of a C. parvum oocyst and HCT-8 cell shortly after infection (Scale bar = 500 nm). b Schematic of experimental design. […] Each point represents the mean and SD of at least two biological replicates with four technical replicates per experiment.
C. parvum invasion inhibition was measured by modifying the 48 h growth inhibition assay described above. […] In parallel, Iowa strain oocysts were excysted. […] Assay plates were incubated at 37 °C and 5% CO2 for 3 h.

[3] = test system: C. parvum; test: Egress, motility, reinvasion assay (PV ratio); conditions: compound at EC90; for Egress and Reinvasion Assay: Mean PV ratios (19.5h:6h), Average: average of replicates; for Egress and Reinvasion Assay: Mean PV ratios (19.5h:6h), Replicate 1a: single replicate 1; for Egress and Reinvasion Assay: Mean PV ratios (19.5h:6h), Replicate 2a: single replicate 2; for Egress and Reinvasion Assay: Mean PV ratios (19.5h:6h), Replicate 3a: single replicate 3; for Egress and Reinvasion Assay: Mean PV ratios (19.5h:6h), Replicate 4a: single replicate 4
Description: For quantification of parasitophorous vacuoles over time, HCT-8 cells were grown to greater than 90% confluence in 384-well plates and infected with 11,000 oocysts after triggering excystation.

[4] = read-out: Regular 3 to 48 h assay in vitro EC90, C. parvum in HCT-8 cells
[5] = Cryptosporidium parvum, HCT-8, read-out: Regular 3 to 48 h assay in vitro EC90, C. parvum in HCT-8 cells
[6] = Cryptosporidium parvum, read-out: Regular 3 to 48 h assay in vitro EC90, C. parvum in HCT-8 cells

Row | Compound | EC90 [1, 4] [µM] | Invasion Assay: Mean % Inhibition (parasites), Average [2] [%] | Invasion Assay: Mean % Inhibition (parasites), Replicate 1a [2] [%] | Invasion Assay: Mean % Inhibition (parasites), Replicate 2a [2] [%] | Egress and Reinvasion Assay: Mean PV ratios (19.5h:6h), Average [3] | Egress and Reinvasion Assay: Mean PV ratios (19.5h:6h), Replicate 1a [3] | Egress and Reinvasion Assay: Mean PV ratios (19.5h:6h), Replicate 2a [3] | EC90 [1, 5] [µM] | Egress and Reinvasion Assay: Mean PV ratios (19.5h:6h), Replicate 3a [3] | Egress and Reinvasion Assay: Mean PV ratios (19.5h:6h), Replicate 4a [3] | Invasion Assay: Mean % Inhibition (parasites), Replicate 3a ([2]; single biological replicate 3) [%] | Invasion Assay: Mean % Inhibition (parasites), Replicate 4a ([2]; single biological replicate 4) [%] | Egress and Reinvasion Assay: Mean PV ratios (19.5h:6h), Replicate 5a ([3]; single replicate 5) | Egress and Reinvasion Assay: Mean PV ratios (19.5h:6h), Replicate 6a ([3]; single replicate 6) | EC90 [1, 6] [µM] | Sporozoite invasion ([2]; yes/no grouping by phenotypic assay result)
1 | Cc1cccc(-n2ncc3c(=O)[nH]c(-n4nc(C)cc4NC(=O)C4CC4)nc32)c1 [C-4] | 5.17 | 9.11 | 19 | -1.12 | 0.48 | 0.49 | 0.48 |  |  |  |  |  |  |  |  | 
2 | Cc1cccc(-n2ncc3c(=O)[nH]c(-n4nc(C)cc4NC(=O)C4CCCC4)nc32)c1 [C-5] | 4.99 | 13.07 | 31 | -4.39 | 0.31 | 0.20 | 0.42 |  |  |  |  |  |  |  |  | 
3 | C[C@H]1CCC[C@H](C[C@H]2Cc3cc(O)cc(O)c3C(=O)O2)O1 [Cladosporin] |  | -6.64 | 5.41 | -19 | 0.68 | 0.52 | 0.83 | 0.49 |  |  |  |  |  |  |  | 
4 | O=C(Nc1ccc(Cl)c(Cl)c1)N1CCN(c2ccc3nncn3n2)CC1 [D-28] | 1.5 | -13.23 | -5 | -22 | 1.28 | 1.01 | 1.19 |  | 1.91 | 1.01 |  |  |  |  |  | 
5 | CN(C)S(=O)(=O)c1ccc(C(=O)N2CCN(c3ccc4nncn4n3)CC2)cc1 [D-44] | 11.6 | -11.48 | -25 | -14 | 2.21 | 2.22 | 2.32 |  | 1.73 | 2.75 | 2 | -9 | 1.96 | 2.29 |  | 
6 | CC(=O)O[C@@]12CO[C@@H]1C[C@H](O)[C@@]1(C)C(=O)[C@H](O)C3=C(C)[C@@H](OC(=O)[C@H](O)[C@@H](NC(=O)OC(C)(C)C)c4ccccc4)C[C@@](O)([C@@H](OC(=O)c4ccccc4)[C@H]21)C3(C)C [Docetaxel] |  | -8.63 | -1.34 | -16 | 1.76 | 1.96 | 2.25 | 1 | 1.23 | 1.60 |  |  |  |  |  | 
7 | O=c1[nH]c(=O)n([C@H]2C[C@H](O)[C@@H](CO)O2)cc1F [Floxuridine] |  | -28.03 | -30 | -26 | 0.74 | 0.67 | 0.80 |  |  |  |  |  |  |  | 0.14 | no
8 | CN(C)c1ccc(C(=C2C=CC(=[N+](C)C)C=C2)c2ccc(N(C)C)cc2)cc1 [Gentian Violet] | 1.05 | -6.62 | -1.27 | -12 | 1.37 | 1.01 | 1.73 |  |  |  |  |  |  |  |  | 
9 | O=C(CC1NCCCC1O)Cn1cnc2cc(Br)c(Cl)cc2c1=O (stereo not shown) [Halofuginone] |  | 6.92 | 11 | 2.47 | 0.69 | 0.76 | 1.01 | 0.34 | 0.53 | 0.46 |  |  |  |  |  | 
10 | CCC(C)n1ncn(-c2ccc(N3CCN(c4ccc(OCC5COC(Cn6cncn6)(c6ccc(Cl)cc6Cl)O5)cc4)CC3)cc2)c1=O (stereo not shown) [Itraconazole] |  | -29.72 | -31 | -28 | 1.77 | 2.21 | 1.33 | 7.24 |  |  |  |  |  |  |  | 
11 | CSc1ccccc1C(=O)Nc1nc(-c2ccccn2)cs1 [MMV001246] | 5.39 | -7.41 | -15 | 0.521 | 0.43 | 0.60 | 0.25 |  |  |  |  |  |  |  |  | 
12 | O=C(Nc1nc(-c2ccccn2)cs1)c1ccccc1Br [MMV665909] | 6.84 | -12.01 | -8.54 | -15 | 0.41 | 0.61 | 0.21 |  |  |  |  |  |  |  |  | 
13 | Cc1cn(-c2cc(NC(=O)c3ccc(C)c(Nc4nccc(-c5cccnc5)n4)c3)cc(C(F)(F)F)c2)cn1 [Nilotinib] |  | -21.88 | -24 | -19 | 1.05 | 1.50 | 1.54 |  | 0.60 | 0.54 |  |  |  |  | 16.5 | 
